Measured values taken from US20230295096A1, “PYRAZOLE CARBOXAMIDE COMPOUNDS FOR TREATMENT OF HBV” (ASSEMBLY BIOSCIENCES, INC., priority 2020, published 2023).

What follows are compounds tested on HBV (assay: Viral load production from HepAD38 cells, qPCR of the HBV core sequence in supernatant). Details: Hepatitis B virus, HePAD38, 120 h, HepAD38 cells, 5 days, HBV DNA in supernatant by qPCR; Table 1 ranges; read-out: Activity (viral load lowering EC50).
Format: cell-based
Summary of the method: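 EC50 and CC50 come from four-parameter logistic fits of supernatant HBV core DNA (TaqMan qPCR, DNA standards, compared with DMSO wells) and of CellTiter-Glo luminescence.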

| SMILES | EC50 |
| --- | --- |
| Cn1nc(C2CC3CC(CNS(=O)(=O)C4CCS(=O)(=O)CC4)CC3C2)c(C(=O)Nc2ccc(F)c(Cl)c2)c1N (stereo not shown) [Example 97, 5-Amino-N-(3-chloro-4-fluorophenyl)-3-(5-(((1,1-dioxidotetrahydro-2H-thiopyran)-4-sulfonamido)methyl)octahydropentalen-2-yl)-1-methyl-1H-pyrazole-4-carboxamide] | 10 to 50 nM |
| CC(C(F)(F)F)S(=O)(=O)NCC1CC2CC(c3nn(C)c(N)c3C(=O)Nc3ccc(F)c(Cl)c3)CC2C1 (stereo not shown) [Example 98, 5-Amino-N-(3-chloro-4-fluorophenyl)-1-methyl-3-(5-(((2,2,2-trifluoro-1-methylethyl)sulfonamido)methyl)octahydropentalen-2-yl)-1H-pyrazole-4-carboxamide] | 10 to 50 nM |
| C[C@@H](NC1CC2CC(c3nn(C)c(N)c3C(=O)Nc3ccc(F)c(Cl)c3)CC2C1)C(F)(F)F (stereo partly drawn) [Example 99, 5-Amino-N-(3-chloro-4-fluorophenyl)-1-methyl-3-(5-(((R)-1,1,1-trifluoropropan-2-yl)amino)octahydropentalen-2-yl)-1H-pyrazole-4-carboxamide] | 10 to 50 nM |
| C[C@H](NC1CC2CC(c3nn(C)c(N)c3C(=O)Nc3ccc(F)c(Cl)c3)CC2C1)C(F)(F)F (stereo partly drawn) [Example 100, 5-Amino-N-(3-chloro-4-fluorophenyl)-1-methyl-3-(5-(((S)-1,1,1-trifluoropropan-2-yl)amino)octahydropentalen-2-yl)-1H-pyrazole-4-carboxamide] | 10 to 50 nM |
| Cn1nc(C2CC3CC4(CNC(=O)N4)CC3C2)c(C(=O)Nc2ccc(F)c(Cl)c2)c1N (stereo not shown) [Example 114, 5-Amino-N-(3-chloro-4-fluorophenyl)-1-methyl-3-(2-oxohexahydro-1′H-spiro[imidazolidine-4,2′-pentalen]-5′-yl)-1H-pyrazole-4-carboxamide] | 50 to 500 nM |
| Cn1nc(C2CC3CC4(CC3C2)NC(=O)NC4=O)c(C(=O)Nc2ccc(F)c(Cl)c2)c1N (stereo not shown) [Example 116, 5-Amino-N-(3-chloro-4-fluorophenyl)-3-(2,5-dioxohexahydro-1′H-spiro[imidazolidine-4,2′-pentalen]-5′-yl)-1-methyl-1H-pyrazole-4-carboxamide] | 50 to 500 nM |
| Cn1nc(C2CC3CN(C4COC4)CC3C2)c(C(=O)Nc2ccc(F)c(Cl)c2)c1N (stereo not shown) [Example 117, 5-Amino-N-(3-chloro-4-fluorophenyl)-1-methyl-3-(2-(oxetan-3-yl)octahydrocyclopenta[c]pyrrol-5-yl)-1H-pyrazole-4-carboxamide] | 50 to 500 nM |
| Cn1nc(C2CC3CN(C(=O)OC4CC(F)(F)C4)CC3C2)c(C(=O)Nc2ccc(F)c(Cl)c2)c1N (stereo not shown) [Example 118, 3,3-Difluorocyclobutyl 5-(5-amino-4-((3-chloro-4-fluorophenyl)carbamoyl)-1-methyl-1H-pyrazol-3-yl)hexahydrocyclopenta[c]pyrrole-2(1H)-carboxylate] | 50 to 500 nM |
| Cn1nc(C2CC3CN(C(=O)OC4COC4)CC3C2)c(C(=O)Nc2ccc(F)c(Cl)c2)c1N (stereo not shown) [Example 119, Oxetan-3-yl 5-(5-amino-4-((3-chloro-4-fluorophenyl)carbamoyl)-1-methyl-1H-pyrazol-3-yl)hexahydrocyclopenta[c]pyrrole-2(1H)-carboxylate] | 10 to 50 nM |
| Cn1nc(C2CC3CN(C(=O)c4cnc(C(F)(F)F)s4)CC3C2)c(C(=O)Nc2ccc(F)c(Cl)c2)c1N (stereo not shown) [Example 120, 5-Amino-N-(3-chloro-4-fluorophenyl)-1-methyl-3-(2-(2-(trifluoromethyl)thiazole-5-carbonyl)octahydrocyclopenta[c]pyrrol-5-yl)-1H-pyrazole-4-carboxamide] | 50 to 500 nM |
| Cn1nc(C2CC3CN(C(=O)c4cccc(F)c4)CC3C2)c(C(=O)Nc2ccc(F)c(Cl)c2)c1N (stereo not shown) [Example 121, 5-Amino-N-(3-chloro-4-fluorophenyl)-3-(2-(3-fluorobenzoyl)octahydrocyclopenta[c]pyrrol-5-yl)-1-methyl-1H-pyrazole-4-carboxamide] | 10 to 50 nM |
| Cn1nc(C2CC3CN(C(=O)Nc4cccc(F)c4)CC3C2)c(C(=O)Nc2ccc(F)c(Cl)c2)c1N (stereo not shown) [Example 122, 5-(5-Amino-4-((3-chloro-4-fluorophenyl)carbamoyl)-1-methyl-1H-pyrazol-3-yl)-N-(3-fluorophenyl)hexahydrocyclopenta[c]pyrrole-2(1H)-carboxamide] | 10 to 50 nM |
| Cn1nc(C2CC3CN(C(=O)NC4CC(F)(F)C4)CC3C2)c(C(=O)Nc2ccc(F)c(Cl)c2)c1N (stereo not shown) [Example 123, 5-(5-Amino-4-((3-chloro-4-fluorophenyl)carbamoyl)-1-methyl-1H-pyrazol-3-yl)-N-(3,3-difluorocyclobutyl)hexahydrocyclopenta[c]-pyrrole-2(1H)-carboxamide] | 50 to 500 nM |
| Cn1nc(C2CC3CN(c4c(F)cncc4F)CC3C2)c(C(=O)Nc2ccc(F)c(Cl)c2)c1N (stereo not shown) [Example 124, 5-Amino-N-(3-chloro-4-fluorophenyl)-3-(2-(3,5-difluoropyridin-4-yl)octahydrocyclopenta[c]pyrrol-5-yl)-1-methyl-1H-pyrazole-4-carboxamide] | 10 to 50 nM |
| Cn1nc(C2CC3CN(c4ncc(F)cn4)CC3C2)c(C(=O)Nc2ccc(F)c(Cl)c2)c1N (stereo not shown) [Example 125, 5-Amino-N-(3-chloro-4-fluorophenyl)-3-(2-(5-fluoropyrimidin-2-yl)octahydrocyclopenta[c]pyrrol-5-yl)-1-methyl-1H-pyrazole-4-carboxamide] | 10 to 50 nM |
| Cn1nc(C2CC3CN(C(=O)NCC4CC(F)(F)C4)CC3C2)c(C(=O)Nc2ccc(F)c(Cl)c2)c1N (stereo not shown) [Example 126, 5-(5-Amino-4-((3-chloro-4-fluorophenyl)carbamoyl)-1-methyl-1H-pyrazol-3-yl)-N-((3,3-difluorocyclobutyl)methyl)-hexahydrocyclopenta[c]pyrrole-2(1H)-carboxamide] | 50 to 500 nM |
| Cn1nc(C2CC3CN(C(=O)Nc4ncc(C(F)(F)F)s4)CC3C2)c(C(=O)Nc2ccc(F)c(Cl)c2)c1N (stereo not shown) [Example 127, 5-(5-Amino-4-((3-chloro-4-fluorophenyl)carbamoyl)-1-methyl-1H-pyrazol-3-yl)-N-(5-(trifluoromethyl)thiazol-2-yl)hexahydrocyclopenta[c]pyrrole-2(1H)-carboxamide] | 50 to 500 nM |
| Cn1nc(C2CC3CN(C(=O)OCc4cccc(F)c4)CC3C2)c(C(=O)Nc2ccc(F)c(Cl)c2)c1N (stereo not shown) [Example 130, 3-fluorobenzyl 5-(5-amino-4-((3-chloro-4-fluorophenyl)carbamoyl)-1-methyl-1H-pyrazol-3-yl)hexahydrocyclopenta[c]pyrrole-2(1H)-carboxylate] | 10 to 50 nM |
| Cn1nc(C2CC3CN(C(=O)NCc4cccc(F)c4)CC3C2)c(C(=O)Nc2ccc(F)c(Cl)c2)c1N (stereo not shown) [Example 131, 5-(5-Amino-4-((3-chloro-4-fluorophenyl)carbamoyl)-1-methyl-1H-pyrazol-3-yl)-N-(3-fluorobenzyl)hexahydrocyclopenta[c]pyrrole-2(1H)-carboxamide] | 10 to 50 nM |
| Cn1nc(C2CC3CN(c4ccc(C(F)(F)F)nn4)CC3C2)c(C(=O)Nc2ccc(F)c(Cl)c2)c1N (stereo not shown) [Example 132, 5-Amino-N-(3-chloro-4-fluorophenyl)-1-methyl-3-(2-(6-(trifluoromethyl)pyridazin-3-yl)octahydrocyclopenta[c]pyrrol-5-yl)-1H-pyrazole-4-carboxamide] | 10 to 50 nM |
| Cn1nc(C2CC3CN(c4ncc(C(F)(F)F)cn4)CC3C2)c(C(=O)Nc2ccc(F)c(Cl)c2)c1N (stereo not shown) [Example 133, 5-Amino-N-(3-chloro-4-fluorophenyl)-1-methyl-3-(2-(5-(trifluoromethyl)pyrimidin-2-yl)octahydrocyclopenta[c]pyrrol-5-yl)-1H-pyrazole-4-carboxamide] | 50 to 500 nM |
| Cn1nc(C2CC3CN(c4ncc(C(F)(F)F)s4)CC3C2)c(C(=O)Nc2ccc(F)c(Cl)c2)c1N (stereo not shown) [Example 134, 5-Amino-N-(3-chloro-4-fluorophenyl)-1-methyl-3-(2-(5-(trifluoromethyl)thiazol-2-yl)octahydrocyclopenta[c]pyrrol-5-yl)-1H-pyrazole-4-carboxamide] | 50 to 500 nM |
| Cn1nc(C2CC3CN(c4cnc(C(F)(F)F)cn4)CC3C2)c(C(=O)Nc2ccc(F)c(Cl)c2)c1N (stereo not shown) [Example 135, 5-Amino-N-(3-chloro-4-fluorophenyl)-1-methyl-3-(2-(5-(trifluoromethyl)pyrazin-2-yl)octahydrocyclopenta[c]pyrrol-5-yl)-1H-pyrazole-4-carboxamide] | 50 to 500 nM |
| Cn1nc(C2CC3CN(c4c(Cl)cncc4Cl)CC3C2)c(C(=O)Nc2ccc(F)c(Cl)c2)c1N (stereo not shown) [Example 136, 5-Amino-N-(3-chloro-4-fluorophenyl)-3-(2-(3,5-dichloropyridin-4-yl)octahydrocyclopenta[c]pyrrol-5-yl)-1-methyl-1H-pyrazole-4-carboxamide] | 50 to 500 nM |
| Cn1cc(C2(O)CC3CC(c4nn(C)c(N)c4C(=O)Nc4ccc(F)c(Cl)c4)CC3C2)cn1 (stereo not shown) [Example 146] | < 10 nM |
| Cn1nc(C2CC3CC(O)(c4ncc[nH]4)CC3C2)c(C(=O)Nc2ccc(F)c(Cl)c2)c1N (stereo not shown) [Example 147] | 10 to 50 nM |
| Cn1nc(C2CC3CC(O)(c4ncc(C(F)(F)F)s4)CC3C2)c(C(=O)Nc2ccc(F)c(Cl)c2)c1N (stereo not shown) [Example 148] | 10 to 50 nM |
| Cn1nc(C2CC3CC(O)(c4nc(C(F)(F)F)cs4)CC3C2)c(C(=O)Nc2ccc(F)c(Cl)c2)c1N (stereo not shown) [Example 149] | 10 to 50 nM |
| Cn1cc(Br)c(C2(O)CC3CC(c4nn(C)c(N)c4C(=O)Nc4ccc(F)c(Cl)c4)CC3C2)n1 (stereo not shown) [Example 150] | < 10 nM |

Same assay, conditions: Hepatitis B virus, HePAD38, 120 h, HepAD38 cells, 5 days, HBV DNA in supernatant by qPCR; Table 2 ranges; read-out: VL HepAD38 EC50 range

| SMILES | EC50 |
| --- | --- |
| Cn1nc(C2CC3CC3C2)c(C(=O)Nc2ccc(F)c(Cl)c2)c1N (stereo not shown) [Example 139, 5-Amino-3-(bicyclo[3.1.0]hexan-3-yl)-N-(3-chloro-4-fluorophenyl)-1-methyl-1H-pyrazole-4-carboxamide] | < 100 nM |
| Cn1nc(C2CC3CC(=O)C(c4ccccc4)C3C2)c(C(=O)Nc2ccc(F)c(Cl)c2)c1N (stereo not shown) [Example 140, 5-Amino-N-(3-chloro-4-fluorophenyl)-1-methyl-3-(5-oxo-4-phenyloctahydropentalen-2-yl)-1H-pyrazole-4-carboxamide] | < 100 nM |
